Reference: PubChem BioAssay AID256 (DTP/NCI, 2004)
Where “and” joins values, the source holds several entries; their conditions need not be identical. Equal values may be shown once. Toxic doses and inconclusive results are not listed. Rule for the calls: active = survival T/C of 150% or more; inactive = T/C below 125% in these data.

Tested on: CD2F1 mice, L1210 leukemia ip, survival T/C
Experiment: NCI In Vivo Anticancer Drug Screen. Data for tumor model L1210 Leukemia (intraperitoneal) in CD2F1 (CDF1) mice
Conditions: higher = longer survival
Method: The antitumor activity of compounds was measured in mice bearing transplantable tumors. Survival or tumor size were measured and the results are expressed as the measurement made in the treated group (T) divided by the measurement made in the vehicle treated control group (C). The tumor model used in this assay is L1210 Leukemia (intraperitoneal) in CD2F1 (CDF1) mice

[1] = endpoint: mean survival time, dose: 100.0 mg/kg/injection, schedule: Q01DX001 (ip), vehicle: saline with Tween-80
[2] = endpoint: mean survival time, dose: 200.0 mg/kg/injection, schedule: Q01DX001 (ip), vehicle: saline with Tween-80
[3] = endpoint: mean survival time, dose: 400.0 mg/kg/injection, schedule: Q01DX001 (ip), vehicle: saline with Tween-80
[4] = endpoint: mean survival time, dose: 100.0 mg/kg/injection, schedule: Q01DX009 (ip), vehicle: saline with Tween-80
[5] = endpoint: mean survival time, dose: 200.0 mg/kg/injection, schedule: Q01DX009 (ip), vehicle: saline with Tween-80
[6] = endpoint: mean survival time, dose: 400.0 mg/kg/injection, schedule: Q01DX009 (ip), vehicle: saline with Tween-80
[7] = endpoint: mean survival time, dose: 50.0 mg/kg/injection, schedule: Q01DX009 (ip), vehicle: saline with Tween-80

Measured: T/C

CC(C)(C)N.[O]=[Cr](=[O])([OH])[OH]
inactive: endpoint: mean survival time, dose: 5.0 mg/kg/injection, schedule: Q01DX001 (ip), vehicle: saline 104 % of control | endpoint: mean survival time, dose: 10.0 mg/kg/injection, schedule: Q01DX001 (ip), vehicle: saline 102 % of control | endpoint: mean survival time, dose: 20.0 mg/kg/injection, schedule: Q01DX001 (ip), vehicle: saline 96 % of control | endpoint: mean survival time, dose: 40.0 mg/kg/injection, schedule: Q01DX001 (ip), vehicle: saline 94 % of control

CC(=O)c1cccc(C(=O)O)c1
inactive: [1] 103 % of control | [2] 101 % of control | [3] 103 % of control

CCC1(CC)C=CC(Br)CC1(CC)CC (centres undefined)
inactive: [4] 101 % of control | [5] 113 % of control | [6] 98 % of control

Cc1nc(=O)cnn1C1OC(CO)C(O)C1O (centres undefined)
inactive: endpoint: mean survival time, dose: 12.5 mg/kg/injection, schedule: Q01DX005 (ip), vehicle: distilled water + Tween-80 102 % of control | endpoint: mean survival time, dose: 25.0 mg/kg/injection, schedule: Q01DX005 (ip), vehicle: distilled water + Tween-80 102 % of control | endpoint: mean survival time, dose: 50.0 mg/kg/injection, schedule: Q01DX005 (ip), vehicle: distilled water + Tween-80 97 % of control | endpoint: mean survival time, dose: 100.0 mg/kg/injection, schedule: Q01DX005 (ip), vehicle: distilled water + Tween-80 103 % of control | endpoint: mean survival time, dose: 200.0 mg/kg/injection, schedule: Q01DX005 (ip), vehicle: distilled water + Tween-80 105 % of control

O=C(O)/C=C/C(=O)NNC(=O)/C=C/C(=O)O
inactive: [7] 94 % of control | [4] 96 % of control | [5] 91 % of control

Cc1cc2oc(=O)cc(N3CCOCC3)c2c(=O)o1
inactive: endpoint: mean survival time, dose: 100.0 mg/kg/injection, schedule: Q04DX003 (ip), vehicle: saline with Tween-80 110 % of control | endpoint: mean survival time, dose: 200.0 mg/kg/injection, schedule: Q04DX003 (ip), vehicle: saline with Tween-80 109 % of control

c1ccc([Te][Te]c2ccccc2)cc1
inactive: endpoint: median survival time, dose: 12.5 mg/kg/injection, schedule: Q01DX009 (ip), vehicle: saline with Tween-80 104 % of control | endpoint: median survival time, dose: 25.0 mg/kg/injection, schedule: Q01DX009 (ip), vehicle: saline with Tween-80 108 % of control | endpoint: median survival time, dose: 50.0 mg/kg/injection, schedule: Q01DX009 (ip), vehicle: saline with Tween-80 104 % of control

CCCCCCCCCCCCCCCC(=O)N(CCCCN(CCCN(C)C)C(=O)CCCCCCCCCCCCCCC)CCCN(C)C
inactive: endpoint: mean survival time, dose: 25.0 mg/kg/injection, schedule: Q01DX009 (ip), vehicle: saline with Tween-80 93 % of control | [7] 91 % of control

NC(=O)OCC#CCN1CCCC1
inactive: endpoint: mean survival time, dose: 5.0 mg/kg/injection, schedule: Q01DX009 (ip), vehicle: saline with Tween-80 102 % of control | endpoint: mean survival time, dose: 10.0 mg/kg/injection, schedule: Q01DX009 (ip), vehicle: saline with Tween-80 103 % of control | endpoint: mean survival time, dose: 20.0 mg/kg/injection, schedule: Q01DX009 (ip), vehicle: saline with Tween-80 100 % of control

CN(C)N=Nc1ccc(S(N)(=O)=O)cc1C(N)=O
inactive: endpoint: mean survival time, dose: 18.8 mg/kg/injection, schedule: Q01DX009 (ip), vehicle: Klucel (hydroxypropylcellulose) (HPC) 96 % of control and 106 % of control | endpoint: mean survival time, dose: 37.5 mg/kg/injection, schedule: Q01DX009 (ip), vehicle: Klucel (hydroxypropylcellulose) (HPC) 98 % of control and 110 % of control | endpoint: mean survival time, dose: 75.0 mg/kg/injection, schedule: Q01DX009 (ip), vehicle: Klucel (hydroxypropylcellulose) (HPC) 120 % of control | endpoint: mean survival time, dose: 300.0 mg/kg/injection, schedule: Q01DX009 (ip), vehicle: Klucel (hydroxypropylcellulose) (HPC) 117 % of control and 111 % of control

COC1OCC(OS(C)(=O)=O)C(OS(C)(=O)=O)C1OS(C)(=O)=O (centres undefined)
inactive: [1] 96 % of control | [4] 95 % of control and 100 % of control | [2] 97 % of control | [5] 96 % of control and 94 % of control | [3] 100 % of control | [6] 93 % of control and 96 % of control

NC(=O)Cc1ccccc1[N+](=O)[O-]
inactive: endpoint: mean survival time, dose: 50.0 mg/kg/injection, schedule: Q01DX001 (ip), vehicle: saline with Tween-80 95 % of control | [1] 104 % of control | [2] 106 % of control

C(#Cc1ccccc1)/C=C/C(=C\c1ccccc1)c1ccccc1
inactive: [1] 92 % of control | [2] 89 % of control | [3] 87 % of control
